In patent US12371454B2, “Cyclic peptide compound having Kras inhibitory action” (priority 2019, dated 2025):
Starred links: 1 amine or outer side, 2 acyl side, 3 side chain; linkers in the order of their positions; H or OH if unused. Positions of bridges follow the written chain, without caps; N, C: chain ends. Non-standard residues stand in square brackets, D forms with d. Residues, ends and D or L forms follow the SMILES beside them. *: point of attachment. NMeAbu(3,3-F2-piperidino) = CN[C@@H](CCN1CCCC(F)(F)C1)C(=O)O; hPhe(3-Cl-4-CF3) = N[C@@H](CCc1ccc(C(F)(F)F)c(Cl)c1)C(=O)O; hPhe(3,4-Cl2) = N[C@@H](CCc1ccc(Cl)c(Cl)c1)C(=O)O; NMePhe(4-CN) = CN[C@@H](Cc1ccc(C#N)cc1)C(=O)O; NMePhe(4-Cl) = CN[C@@H](Cc1ccc(Cl)cc1)C(=O)O; NMePhe(4-Me) = CN[C@@H](Cc1ccc(C)cc1)C(=O)O; hPhe(4-Cl) = N[C@@H](CCc1ccc(Cl)cc1)C(=O)O; NMedβ3hAla = C[C@H](CC(=O)[*:2])N(C)[*:1]; NMeAla(cPent) = CN[C@@H](CC1CCCC1)C(=O)O; NMeGly(cPent) = CN[C@H](C(=O)O)C1CCCC1; NMeGly(cBu) = CN[C@H](C(=O)O)C1CCC1; NMeCha = CN[C@@H](CC1CCCCC1)C(=O)O; NMeChg = CN[C@H](C(=O)O)C1CCCCC1; NMeF = CN[C@@H](Cc1ccccc1)C(=O)O; NMeI = CC[C@H](C)[C@H](NC)C(=O)O; NMeT = CN[C@H](C(=O)O)[C@@H](C)O; NMeD = CN[C@@H](CC(=O)O)C(=O)O; NMeL = CN[C@@H](CC(C)C)C(=O)O; NPrAla = CCCN[C@@H](C)C(=O)O; NMeV = CN[C@H](C(=O)O)C(C)C; d(β3hA) = C[C@@H](N)CC(=O)O; NMeS = CN[C@@H](CO)C(=O)O; Morpholide = C1CN(*)CCO1; NMeA = CN[C@@H](C)C(=O)O; Piperidide = C1CCN(*)CC1; Ac5c = NC1(C(=O)O)CCCC1; Aze = O=C(O)[C@@H]1CCN1; Ac4c = NC1(C(=O)O)CCC1; Cyclobutyl = C1CC(*)C1; Sar = CNCC(=O)O; Propyl = CCC*

Experiments:
[1] = biological target: T1, Kras and SOS1 (biotin-tagged human Kras loaded with GDP, His-tagged human SOS1) (Homo sapiens, UniProt P01116, G12D); test: Protein-protein interaction inhibition between Kras and SOS1 (KrasGl2D-SOS PPI) using AlphaScreen; assay type: binding; settings: AlphaScreen; biotin-tagged human Kras loaded with GDP, His-tagged human SOS1; read-out: KRAS G12D-SOS PPI IC50
T1 construct: made in house; host or cells: E. coli (stated for Kras only)
T1 sequence (P01116 1-188 isoform P01116-2 G12D): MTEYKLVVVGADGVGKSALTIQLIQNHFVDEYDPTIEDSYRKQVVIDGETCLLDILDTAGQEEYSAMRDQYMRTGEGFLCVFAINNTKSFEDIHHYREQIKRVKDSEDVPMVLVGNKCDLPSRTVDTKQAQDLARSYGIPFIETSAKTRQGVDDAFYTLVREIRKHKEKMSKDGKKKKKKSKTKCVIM
In short: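 AlphaScreen format: Ni donor beads capture His-SOS1, streptavidin acceptor beads capture biotinylated Kras (E. coli-expressed, GDP-loaded post-purification). Excite 680 nm, read 520-620 nm.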

[2] = test system: Human pancreatic cancer cell line AsPC-1; test: Measurement of AsPC-1 cell growth inhibition (AsPC-1 CGI); assay type: cell-based; settings: 96 h
In short: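 AsPC-1 cells in 15% FBS RPMI-1640 were exposed to test compound for 96 hours at 37° C, with CellTiter-Glo as endpoint.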

| SMILES | IC50 [1] | IC50 [2] |
| --- | --- | --- |
| CC[C@H](C)[C@@H]1NC(=O)[C@H](CC(C)C)N(C)C(=O)C[C@@H](C(=O)N(C)C)N(C)C(=O)[C@H]([C@@H](C)CC)N(C)C(=O)C2(CCCC2)NC(=O)[C@H](CCN2CCCC(F)(F)C2)N(C)C(=O)[C@H](CCc2ccc(C(F)(F)F)c(Cl)c2)NC(=O)CN(C)C(=O)[C@H](Cc2ccc(C)cc2)N(C)C(=O)[C@@H]2CCN2C(=O)[C@H](C)N(C)C1=O [Compound 818] ([NMeL]I[NMeA][Aze][NMePhe(4-Me)][Sar][hPhe(3-Cl-4-CF3)][NMeAbu(3,3-F2-piperidino)][Ac5c][NMeI][NMeD]-NMe2; lactam N-11) | 1.2 nM | 20 to 50 nM |
| CC[C@H](C)[C@@H]1NC(=O)[C@H]([C@@H](C)OC)N(C)C(=O)C[C@@H](C(=O)N2CCCCC2)N(C)C(=O)[C@H](C2CCCCC2)N(C)C(=O)C2(CCCC2)NC(=O)[C@@H]2CCCN2C(=O)[C@H](CCc2ccc(C(F)(F)F)c(Cl)c2)NC(=O)CN(C)C(=O)[C@H](CC2CCCCC2)N(C)C(=O)CN(C)C(=O)CN(C)C1=O [Compound 820] ([NMeT](Me)I[Sar][Sar][NMeCha][Sar][hPhe(3-Cl-4-CF3)]P[Ac5c][NMeChg][NMeD]-Piperidide; lactam N-11) | 0.73 nM | 50 to 100 nM |
| CCCN1C(=O)C[C@@H](C)N(C)C(=O)[C@H](C(C)C)N(C)C(=O)C2(CCCC2)NC(=O)[C@@H]2CCCN2C(=O)[C@H](CCc2ccc(C(F)(F)F)c(Cl)c2)NC(=O)CN(C)C(=O)[C@H](CC2CCCCC2)N(C)C(=O)CN(C)C(=O)CN(C)C(=O)[C@H]([C@@H](C)CC)NC(=O)[C@@H]1C [Compound 824] (cyclo([Ac5c][NMeV][NMedβ3hAla][NPrAla]I[Sar][Sar][NMeCha][Sar][hPhe(3-Cl-4-CF3)]P)) | 5.6 nM | 100 to 500 nM |
| CC[C@H](C)[C@@H]1NC(=O)[C@H](C)N(C)C(=O)C[C@@H](C(=O)N2CCCCC2)N(C)C(=O)[C@H](C2CCCCC2)N(C)C(=O)C2(CCCC2)NC(=O)[C@@H]2CCCN2C(=O)[C@H](CCc2ccc(Cl)c(Cl)c2)NC(=O)CN(C)C(=O)[C@H](CC2CCCCC2)N(C)C(=O)CN(C)C(=O)CN(C)C1=O [Compound 825] ([NMeA]I[Sar][Sar][NMeCha][Sar][hPhe(3,4-Cl2)]P[Ac5c][NMeChg][NMeD]-Piperidide; lactam N-11) | 0.35 nM | 50 to 100 nM |
| CC[C@H](C)[C@@H]1NC(=O)[C@H](CC(C)C)N(C)C(=O)C[C@@H](C)N(C)C(=O)[C@H](C(C)C)N(C)C(=O)C2(CCC2)NC(=O)[C@@H]2CCCN2C(=O)[C@H](CCc2ccc(C(F)(F)F)c(Cl)c2)NC(=O)CN(C)C(=O)[C@H](CC2CCCCC2)N(C)C(=O)CN(C)C(=O)CN(C)C1=O [Compound 837] (cyclo([Ac4c][NMeV][NMedβ3hAla][NMeL]I[Sar][Sar][NMeCha][Sar][hPhe(3-Cl-4-CF3)]P)) | 6 nM | 50 to 100 nM |
| CC[C@H](C)[C@@H]1NC(=O)[C@H](CC(C)C)N(C)C(=O)C[C@@H](C(=O)N(C)C)N(C)C(=O)[C@H]([C@@H](C)CC)N(C)C(=O)C2(CCCC2)NC(=O)[C@H](Cc2ccc(Cl)cc2)N(C)C(=O)[C@H](CCc2ccc(C(F)(F)F)c(Cl)c2)NC(=O)CN(C)C(=O)[C@H](Cc2ccc(C)cc2)N(C)C(=O)[C@@H]2CCN2C(=O)[C@H](C)N(C)C1=O [Compound 838] ([NMeL]I[NMeA][Aze][NMePhe(4-Me)][Sar][hPhe(3-Cl-4-CF3)][NMePhe(4-Cl)][Ac5c][NMeI][NMeD]-NMe2; lactam N-11) | 10 nM | 100 to 500 nM |
| CC[C@H](C)[C@@H]1NC(=O)[C@H](CC(C)C)N(C)C(=O)C[C@@H](C)N(C)C(=O)[C@H](C2CCC2)N(C)C(=O)C2(CCCC2)NC(=O)[C@@H]2CCCN2C(=O)[C@H](CCc2ccc(C(F)(F)F)c(Cl)c2)NC(=O)CN(C)C(=O)[C@H](CC2CCCCC2)N(C)C(=O)CN(C)C(=O)CN(C)C1=O [Compound 845] (cyclo([Ac5c][NMeGly(cBu)][NMedβ3hAla][NMeL]I[Sar][Sar][NMeCha][Sar][hPhe(3-Cl-4-CF3)]P)) | 8.2 nM | 50 to 100 nM |
| CC[C@H](C)[C@@H]1NC(=O)[C@H](C2CCCCC2)N(C)C(=O)C[C@@H](C(=O)N2CCCCC2)N(C)C(=O)[C@H](C2CCCCC2)N(C)C(=O)C2(CCCC2)NC(=O)[C@@H]2CCCN2C(=O)[C@H](CCc2ccc(C(F)(F)F)c(Cl)c2)NC(=O)CN(C)C(=O)[C@H](CC2CCCCC2)N(C)C(=O)CN(C)C(=O)CN(C)C1=O [Compound 849] ([NMeChg]I[Sar][Sar][NMeCha][Sar][hPhe(3-Cl-4-CF3)]P[Ac5c][NMeChg][NMeD]-Piperidide; lactam N-11) | 1.9 nM | 100 to 500 nM |
| CCCOC[C@H]1C(=O)N(C)CC(=O)N[C@@H](CCc2ccc(C(F)(F)F)c(Cl)c2)C(=O)N2CCC[C@H]2C(=O)NC2(CCCC2)C(=O)N(C)[C@@H](C2CCCCC2)C(=O)N(C)[C@H](C(=O)N2CCOCC2)CC(=O)N(C)[C@@H](C2CCC2)C(=O)N[C@@H]([C@@H](C)CC)C(=O)N(C)CC(=O)N(C)CC(=O)N1C [Compound 853] ([NMeGly(cBu)]I[Sar][Sar][NMeS](Propyl)[Sar][hPhe(3-Cl-4-CF3)]P[Ac5c][NMeChg][NMeD]-Morpholide; lactam N-11) | 0.62 nM | 100 to 500 nM |
| CC[C@H](C)[C@@H]1NC(=O)[C@H](CC(C)C)N(C)C(=O)C[C@@H](C(=O)N(C)C)N(C)C(=O)[C@H](C2CCCC2)N(C)C(=O)C2(CCCC2)NC(=O)[C@H](Cc2ccccc2)N(C)C(=O)[C@H](CCc2ccc(C(F)(F)F)c(Cl)c2)NC(=O)CN(C)C(=O)[C@H](CC2CCCCC2)N(C)C(=O)[C@@H]2CCN2C(=O)[C@H](C)N(C)C1=O [Compound 854] ([NMeL]I[NMeA][Aze][NMeCha][Sar][hPhe(3-Cl-4-CF3)][NMeF][Ac5c][NMeGly(cPent)][NMeD]-NMe2; lactam N-11) | 11 nM | 100 to 500 nM |
| CC[C@H](C)[C@@H]1NC(=O)[C@H](CC(C)C)N(C)C(=O)C[C@@H](C(=O)N2CCCCC2)N(C)C(=O)[C@H](C(C)C)N(C)C(=O)C2(CCCC2)NC(=O)[C@@H]2CCCN2C(=O)[C@H](CCc2ccc(C(F)(F)F)c(Cl)c2)NC(=O)CN(C)C(=O)[C@H](COC2CCC2)N(C)C(=O)[C@@H]2CCN2C(=O)[C@H](C)N(C)C1=O [Compound 880] ([NMeL]I[NMeA][Aze][NMeS](Cyclobutyl)[Sar][hPhe(3-Cl-4-CF3)]P[Ac5c][NMeV][NMeD]-Piperidide; lactam N-11) | 2.9 nM | 100 to 500 nM |
| CC[C@H](C)[C@@H]1NC(=O)[C@H](CC(C)C)N(C)C(=O)C[C@@H](C)N(C)C(=O)[C@H](C(C)C)N(C)C(=O)C2(CCCC2)NC(=O)[C@@H]2CCCN2C(=O)[C@H](CCc2ccc(C(F)(F)F)c(Cl)c2)NC(=O)CN(C)C(=O)[C@H](Cc2ccc(C#N)cc2)N(C)C(=O)CN(C)C(=O)CN(C)C1=O [Compound 888] (cyclo([Ac5c][NMeV][NMedβ3hAla][NMeL]I[Sar][Sar][NMePhe(4-CN)][Sar][hPhe(3-Cl-4-CF3)]P)) | 3.9 nM | 100 to 500 nM |
| CC[C@H](C)[C@@H]1NC(=O)[C@H](C2CCC2)N(C)C(=O)C[C@@H](C(=O)N2CCOCC2)N(C)C(=O)[C@H](C2CCCCC2)N(C)C(=O)C2(CCCC2)NC(=O)[C@@H]2CCCN2C(=O)[C@H](CCc2ccc(C(F)(F)F)c(Cl)c2)NC(=O)CN(C)C(=O)[C@H](CC2CCCCC2)N(C)C(=O)CN(C)C(=O)CN(C)C1=O [Compound 890] ([NMeGly(cBu)]I[Sar][Sar][NMeCha][Sar][hPhe(3-Cl-4-CF3)]P[Ac5c][NMeChg][NMeD]-Morpholide; lactam N-11) | 0.47 nM | 20 to 50 nM |
| CC[C@H](C)[C@@H]1NC(=O)[C@H](CC(C)C)N(C)C(=O)C[C@@H](C(=O)N2CCCCC2)N(C)C(=O)[C@H](C(C)C)N(C)C(=O)C2(CCCC2)NC(=O)[C@@H]2CCCN2C(=O)[C@H](CCc2ccc(Cl)cc2)NC(=O)CN(C)C(=O)[C@H](CC2CCCCC2)N(C)C(=O)CN(C)C(=O)CN(C)C1=O [Compound 893] ([NMeL]I[Sar][Sar][NMeCha][Sar][hPhe(4-Cl)]P[Ac5c][NMeV][NMeD]-Piperidide; lactam N-11) | 21 nM | 100 to 500 nM |
| CC[C@H](C)[C@@H]1NC(=O)[C@H](CC2CCCC2)N(C)C(=O)C[C@@H](C)NC(=O)[C@H](C(C)C)N(C)C(=O)C2(CCCC2)NC(=O)[C@@H]2CCCN2C(=O)[C@H](CCc2ccc(C(F)(F)F)c(Cl)c2)NC(=O)CN(C)C(=O)[C@H](CC2CCCCC2)N(C)C(=O)CN(C)C(=O)CN(C)C1=O [Compound 901] (cyclo([Ac5c][NMeV][d(β3hA)][NMeAla(cPent)]I[Sar][Sar][NMeCha][Sar][hPhe(3-Cl-4-CF3)]P)) | 35 nM | 100 to 500 nM |
| CC[C@H](C)[C@@H]1NC(=O)[C@H](CC(C)C)N(C)C(=O)C[C@@H](C)N(C)C(=O)[C@H]([C@@H](C)CC)N(C)C(=O)C2(CCCC2)NC(=O)[C@@H]2CCCN2C(=O)[C@H](CCc2ccc(C(F)(F)F)c(Cl)c2)NC(=O)CN(C)C(=O)[C@H](CC2CCCCC2)N(C)C(=O)CN(C)C(=O)CN(C)C1=O [Compound 904] (cyclo([Ac5c][NMeI][NMedβ3hAla][NMeL]I[Sar][Sar][NMeCha][Sar][hPhe(3-Cl-4-CF3)]P)) | 7.3 nM | 50 to 100 nM |
